In PubChem BioAssay (NCI):
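Protocol summary: plate cells (96-well), add compound at 5 concentrations, incubate 48 h, interpolate endpoints linearly. TGI: total growth inhibition.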

Columns and labels:
Experiment in all cases: DTP human tumour cell line panel, 48 h
HOP-62 NSCLC = test system: HOP-62 NSCLC
OVCAR-5 ovarian = test system: OVCAR-5 ovarian
PC-3 prostate = test system: PC-3 prostate
MDA-MB-231 breast = test system: MDA-MB-231 breast
NCI-H522 lung = test system: NCI-H522 lung
HL-60(TB) leukemia = test system: HL-60(TB) leukemia
SK-MEL-5 melanoma = test system: SK-MEL-5 melanoma
M14 melanoma = test system: M14 melanoma
OVCAR-8 ovarian = test system: OVCAR-8 ovarian
MALME-3M melanoma = test system: MALME-3M melanoma
MOLT-4 leukemia = test system: MOLT-4 leukemia
BT-549 breast = test system: BT-549 breast
KM12 colon = test system: KM12 colon
SN12C renal = test system: SN12C renal
SNB-19 CNS = test system: SNB-19 CNS
NCI/ADR-RES ovarian = test system: NCI/ADR-RES ovarian
RPMI-8226 leukemia = test system: RPMI-8226 leukemia
HS 578T breast = test system: HS 578T breast
NCI-H460 lung = test system: NCI-H460 lung

Row | Compound | TGI (HOP-62 NSCLC) [µM] | TGI (OVCAR-5 ovarian) [µM] | TGI (PC-3 prostate) [µM] | TGI (MDA-MB-231 breast) [µM] | TGI (NCI-H522 lung) [µM] | TGI (HL-60(TB) leukemia) [µM] | TGI (SK-MEL-5 melanoma) [µM] | TGI (M14 melanoma) [µM] | TGI (OVCAR-8 ovarian) [µM] | TGI (MALME-3M melanoma) [µM] | TGI (MOLT-4 leukemia) [µM] | TGI (BT-549 breast) [µM] | TGI (KM12 colon) [µM] | TGI (SN12C renal) [µM] | TGI (SNB-19 CNS) [µM] | TGI (NCI/ADR-RES ovarian) [µM] | TGI (RPMI-8226 leukemia) [µM] | TGI (HS 578T breast) [µM] | TGI (NCI-H460 lung) [µM]
1 | C=CC(Br)(CBr)CCC(Br)C(C)(C)Cl (configuration not stated) | 7.87 | 14.5 | 9.1 | 6.95 | 2.79 | 2.6 | 23.4 | 14.6 | 10.2 | 19.2 | 4.05 | 21.8 | 3.92 | 16.5 | 4.51 | 18.6 | 2.31 | 14.7 | 6.06
2 | O=c1oc2ccc(Cl)cc2cc1-c1cn2ccccc2n1 | 16.1 | > 100 | > 100 | > 52.7 | > 100 | > 100 | > 100 | > 100 | > 100 | 23.5 | > 100 | > 100 | > 100 | 36.8 | > 21 | > 77.4 | > 100 | > 100 | > 62.5
3 | O=C1NC(=O)/C(=C/c2ccc(S(=O)(=O)N/N=C\C(O)C(O)C(O)C(O)CO)cc2)N1 (configuration not stated) | > 100 | > 100 | > 100 | > 100 |  | > 100 | > 100 | > 100 | > 100 | > 100 | > 100 | > 100 | > 100 | > 100 | > 100 | > 100 | > 100 | > 100 | > 100
4 | O=C(O)CN1CCN(CC(=O)N2CCN(C(=O)OCc3ccccc3)CC2)CCN(CC(=O)O)CCN(CC(=O)N2CCN(C(=O)OCc3ccccc3)CC2)CC1 | > 100 | > 100 | > 100 | > 100 | > 100 | > 100 | > 100 | > 100 | > 100 | > 100 | > 100 | > 100 | > 100 | > 100 | > 100 | > 100 | > 100 | > 100 | > 100
5 | CC(C)(C)c1cc(OCc2nnc3sc(=S)[nH]n23)c(Cl)cc1OCc1nnc2sc(=S)[nH]n12 | > 100 | > 100 | > 100 | > 100 | 37.8 | 55.5 | 29.5 | 75.7 | > 100 | 46.9 | > 100 | > 100 | 68.7 | > 100 | > 100 | > 100 | > 100 | > 100 | 81.8
6 | C=C1C(=O)OC2CC(=C)C3CC=C(C)C3CC12 (configuration not stated) | > 100 | > 100 | 28.4 | 63.7 | 36.2 | 87.1 | > 100 | 40.9 | > 100 |  | 46.8 | 59.7 | > 100 | 31.7 | 54.5 | > 100 | > 100 | > 100 | > 100
7 | COc1ccc(N=Nc2c(C)c(C#N)c(=S)n(C3OC(CO)C(O)C(O)C3O)c2C)cc1 (configuration not stated) | > 100 | > 100 | > 100 | > 100 |  | > 100 | 35.1 | > 100 |  |  | 84.6 | > 100 | > 100 |  | > 100 | > 100 | > 100 | > 100 | > 100
8 | O=C(CN1CCOCC1)c1ccc2c(c1)oc(=O)n2CCN1CCCC1 | > 100 | > 100 | > 100 | > 100 |  | > 100 | > 100 | > 100 | > 100 | > 100 | > 100 | > 100 | > 100 | > 100 | > 100 | > 100 | > 100 | > 100 | > 100
9 | CCOc1ccc(N=NS(=O)(=O)O)cc1 | > 100 | > 100 | > 100 | > 100 | > 100 | > 100 | > 100 | > 100 | > 100 | > 100 |  | > 100 | > 100 | > 100 | > 100 | > 100 | > 100 | > 100 | > 100
10 | CN(C)c1ccc(-c2ccc(N(C)C)c3n[se]nc23)c2n[se]nc12 | > 100 | > 100 | > 100 | > 100 | > 100 | > 100 | > 100 |  | > 100 | > 100 | > 100 | > 100 | > 100 | > 100 |  | > 100 | > 100 | > 100 | > 100
11 | CN(C)C=NCCN1CCOCC1 | > 100 | > 100 | > 100 | > 100 | > 100 | > 100 | > 100 | > 100 | > 100 | > 100 | > 100 | > 100 |  | > 100 | > 100 | > 100 | > 100 | > 100 | 
12 | Cc1ccc(/C=C2\CCCC(CN(C)C)C2=O)cc1 (configuration not stated) | 34.7 | 29.5 | 8.9 | 3.08 | 1.98 | > 100 | 12.5 | 3.31 |  | 3.77 | > 100 | 6.4 | 3.57 | 3.91 | 30.1 | 17.1 |  | > 100 | 13.1
13 | NC(Cc1ccc(S(=O)(=O)O)cc1)C(=O)NC(Cc1ccc(S(=O)(=O)O)cc1)C(=O)NC(Cc1ccc(S(=O)(=O)O)cc1)C(=O)O (configuration not stated) | > 100 | > 100 | > 100 | > 100 | > 100 | > 100 | > 100 | > 100 | > 100 | > 100 | > 100 | > 100 | > 100 | > 100 |  | > 100 | > 100 | > 100 | > 100
